Test [1] concerns Proteus vulg. 1017. Description: MIC, liquid medium test tube series dilution test. The format is cell-based, Proteus vulgaris. To be noted: Proteus vulg. 1017, 24 hours, 37°C. In a few lines: (§1)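 Broth tube serial dilution in complete nutrient medium; tubes read after 24 hours' incubation at 37°C. MIC taken as the concentration in the non-turbid tube of the dilution series, expressed in units/ml.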

Test [2] concerns Proteus vulg. 3400. Description: MIC, liquid medium test tube series dilution test. As to conditions: Proteus vulg. 3400, 24 hours, 37°C. The format is cell-based, Proteus vulgaris. In a few lines: as §1
Test [3] deals with Gram-negative and Gram-positive bacteria. Description: Antibacterial effect, general statements. As to conditions: MIC comparison.
Test [4] deals with Staph. aureus 1777 E. In words: MIC, liquid medium test tube series dilution test. The format is cell-based, Staphylococcus aureus. To be noted: 24 hours, 37°C. In a few lines: as §1
Test [5] deals with Staph. aureus 133. Description: MIC, liquid medium test tube series dilution test. To be noted: Staph. aureus 133, 24 hours, 37°C. In kind it is cell-based, Staphylococcus aureus. The essentials: as §1
For test [6], the system named is E. coli 183/58. Description: MIC, liquid medium test tube series dilution test. As to conditions: E. coli 183/58, 24 hours, 37°C. In kind it is cell-based. In a few lines: as §1
The test system of test [7] is Klebsiella K 10. Description: MIC, liquid medium test tube series dilution test. In kind it is cell-based. As to conditions: Klebsiella K 10, 24 hours, 37°C. The essentials:
as §1

Test [8] deals with E. coli A 261. Description: MIC, liquid medium test tube series dilution test. In kind it is cell-based. To be noted: E. coli A 261, 24 hours, 37°C. The essentials:
as §1

Test [9] concerns E. coli C 165. Description: MIC, liquid medium test tube series dilution test. As to conditions: E. coli C 165, 24 hours, 37°C. In kind it is cell-based. The essentials:
as §1

Test [10] relates to Streptoc. faec. ATCC 9790. In words: MIC, liquid medium test tube series dilution test. As to conditions: Strep. faec. (Enterococcus) ATCC 9790, 24 hours, 37°C. The format is cell-based. The essentials:
as §1

Test [11] deals with E. coli 14. Description: MIC, liquid medium test tube series dilution test. To be noted: E. coli 14, 24 hours, 37°C. In kind it is cell-based. In a few lines:
as §1

For test [12], the system named is Klebsiella 63. Description: MIC, liquid medium test tube series dilution test. To be noted: Klebsiella 63, 24 hours, 37°C. The format is cell-based. The essentials:
as §1

Test [13] concerns Psdm. aerug. Walter. In words: MIC, liquid medium test tube series dilution test. As to conditions: 24 hours, 37°C. In kind it is cell-based, Pseudomonas aerug. In a few lines:
as §1

Test [14] concerns Psdm. aerug. Bonn. Description: MIC, liquid medium test tube series dilution test. As to conditions: 24 hours, 37°C. The format is cell-based, Pseudomonas aerug. In a few lines: as §1

With `CN(C(=O)N[C@@H](C(=O)N[C@@H]1C(=O)N2[C@@H]1SC(C)(C)[C@@H]2C(=O)O)c1ccccc1)C(=O)OC1CCCCC1` [Example 67, Sodium D(-)-α-(3-cyclohexyloxycarbonyl-3-methyl-ureido)-benzylpenicillin], the MIC in test [1] is reported as 6.25 units/ml; in test [1] (listed as (B) of Example 29), 6.25 units/ml; in test [2], 6.25 units/ml; in [2] (listed as (B) of Example 29), 6.25 units/ml; in test [4] it was 400 units/ml; in test [5] it was below 0.78 units/ml. In addition, the MIC was below 0.7 units/ml in test [5] (listed as (B) of Example 29); 1.56 units/ml in test [6]; 1.56 units/ml in [6] (listed as (B) of Example 29); 100 units/ml in test [7]; 100 units/ml in test [7] (listed as (B) of Example 29); 400 units/ml in test [8]. In addition, the MIC in test [8] (listed as (B) of Example 29) is 400 units/ml; in test [9] it was 6.25 units/ml; in test [9] (listed as (B) of Example 29) it was 6.25 units/ml; in test [10], 100 units/ml; in test [11], 1.56 units/ml; in test [11] (listed as (B) of Example 29) it was 1.56 units/ml. Besides, the MIC in [12] amounted to 100 units/ml; in test [13] it was 50 units/ml; in test [14], 25 units/ml. In test [3], the “Biological activity compared between penicillin (A) and penicillin (B)” value is on record as “identical within the limit of error”.
Regarding `CN(C(=O)N[C@@H](C(=O)N[C@@H]1C(=O)N2[C@@H]1SC(C)(C)[C@@H]2C(=O)O)c1ccccc1)C(=O)OC1CCCCC1` [Example 29, Sodium D(-)-α-(3-cyclohexyloxycarbonyl-3-methyl-ureido)-benzylpenicillin], the MIC in test [1] amounted to 12.5 units/ml; in [1] (listed as (A) of Example 29), 12.5 units/ml; in test [2], 12.5 units/ml; in [2] (listed as (A) of Example 29), 12.5 units/ml; in test [4], 200 units/ml; in test [4] (listed as (A) of Example 29) it was 200 units/ml. The MIC in test [5] is recorded as below 0.8 units/ml; in [5] (listed as (A) of Example 29), below 0.7 units/ml; in test [6], 3.1 units/ml; in test [6] (listed as (A) of Example 29), 3.12 units/ml; in [7] it was 200 units/ml; in test [7] (listed as (A) of Example 29), 200 units/ml. For the same molecule, the MIC in [8] was above 400 units/ml; in test [8] (listed as (A) of Example 29), 400 units/ml; in test [9], 6.3 units/ml; in test [9] (listed as (A) of Example 29), 6.25 units/ml; in test [10], 100 units/ml; in test [11], 3.1 units/ml. The figures for the MIC in test [12], in test [13] and in test [14] were 100 units/ml, 50 units/ml and 25 units/ml, respectively. Also, in [3], the “Biological activity compared between penicillin (A) and penicillin (B)” value is “identical within the limit of error”.

Source of the values: patent US3974140A, “Ureidoacetamido-penicillins” (Bayer Aktiengesellschaft, priority 1970, dated 1976).
